The assay concerns the target mGluR5 (Homo sapiens, UniProt P41594). Kind of assay: inhibition of the glutamate induced elevation of intracellular Ca2+ concentration. As to conditions: for inhibition at 10 µM: read-out: mGluR5 Activity inh. at 10 μM [%]; for mGluR5 Activity inh. at 10 μM [%]: inhibition of glutamate induced elevation of intracellular Ca2+ concentration at 10 μM.

The values below come from patent publication US20090005363A1, “Organic Compounds” (priority 2005, published 2009).

Molecules are shown by their SMILES.

mGluR5, sequence (P41594 21-1180 isoform P41594-2 limits assumed): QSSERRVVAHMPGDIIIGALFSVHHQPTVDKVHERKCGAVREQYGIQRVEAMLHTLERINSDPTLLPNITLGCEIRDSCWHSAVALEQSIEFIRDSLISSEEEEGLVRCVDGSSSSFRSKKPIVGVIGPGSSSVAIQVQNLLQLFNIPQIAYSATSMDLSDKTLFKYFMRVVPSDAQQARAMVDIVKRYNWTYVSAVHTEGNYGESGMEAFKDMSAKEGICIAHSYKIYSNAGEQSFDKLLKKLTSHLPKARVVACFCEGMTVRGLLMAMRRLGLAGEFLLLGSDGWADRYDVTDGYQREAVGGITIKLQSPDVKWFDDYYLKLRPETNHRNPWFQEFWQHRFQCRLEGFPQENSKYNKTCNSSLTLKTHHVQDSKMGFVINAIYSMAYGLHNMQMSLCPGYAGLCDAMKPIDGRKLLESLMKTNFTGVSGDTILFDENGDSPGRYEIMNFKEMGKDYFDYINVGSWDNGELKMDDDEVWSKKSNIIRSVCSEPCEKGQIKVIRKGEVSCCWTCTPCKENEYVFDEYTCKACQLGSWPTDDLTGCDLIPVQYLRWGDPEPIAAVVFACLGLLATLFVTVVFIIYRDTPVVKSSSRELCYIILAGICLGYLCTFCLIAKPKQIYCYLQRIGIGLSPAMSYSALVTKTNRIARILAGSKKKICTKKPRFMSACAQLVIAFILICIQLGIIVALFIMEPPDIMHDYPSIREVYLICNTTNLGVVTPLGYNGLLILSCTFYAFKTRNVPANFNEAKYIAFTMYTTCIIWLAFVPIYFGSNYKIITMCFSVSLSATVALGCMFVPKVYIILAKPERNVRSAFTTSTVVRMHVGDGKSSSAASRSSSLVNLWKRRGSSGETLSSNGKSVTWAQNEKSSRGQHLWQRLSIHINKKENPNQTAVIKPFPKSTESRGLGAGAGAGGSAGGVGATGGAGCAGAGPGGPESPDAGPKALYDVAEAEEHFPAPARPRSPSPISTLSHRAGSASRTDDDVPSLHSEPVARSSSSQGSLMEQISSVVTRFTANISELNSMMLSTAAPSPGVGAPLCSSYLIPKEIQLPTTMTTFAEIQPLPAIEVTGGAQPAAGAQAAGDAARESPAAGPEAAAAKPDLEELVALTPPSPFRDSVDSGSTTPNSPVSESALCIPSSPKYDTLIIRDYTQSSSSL
Excerpt: This can be determined in vitro for example at recombinant human metabotropic glutamate receptors, especially PLC-coupled subtypes thereof such as mGluR5, using different procedures like, for example, measurement of the inhibition of the agonist induced elevation of intracellular Ca^2+ concentration in accordance with L. P. Daggett et al., Neuropharm.

On to `CCOc1ccc(Nc2ncc(C(=O)N3CCCCC3)cc2Cl)cn1` [Compound 2.9, [5-Chloro-6-(6-ethoxy-pyridin-3-ylamino)-pyridin-3-yl]-piperidin-1-yl-methanone], for which the inhibition at 10 µM stood at 100%.

Turning to `Cc1ccc(Nc2ncc(C(=O)N3CCSC3)cc2Cl)cn1` [Compound 2.14, [5-Chloro-6-(6-methyl-pyridin-3-ylamino)-pyridin-3-yl]-thiazolidin-3-yl-methanone], the inhibition at 10 µM was 97%.

In the case of `Cc1ccc(Nc2ncc(C(=O)N3CCSCC3)cc2Cl)cn1` [Compound 2.15, [5-Chloro-6-(6-methyl-pyridin-3-ylamino)-pyridin-3-yl]-thiomorpholin-4-yl-methanone], the inhibition at 10 µM is 100%.

Take `Cc1ncc(Nc2ncc(C(=O)N3CCCC(C)C3)cc2Cl)cn1` (centres unmarked) [Compound 2.16, [5-Chloro-6-(2-methyl-pyrimidin-5-ylamino)-pyridin-3-yl]-(3-methyl-piperidin-1-yl)-methanone]: the inhibition at 10 µM is 97%.

Consider `Cc1ncc(Nc2ncc(C(=O)N3CCCCC3)cc2Cl)cn1` [Compound 2.17, [5-Chloro-6-(2-methyl-pyrimidin-5-ylamino)-pyridin-3-yl]-piperidin-1-yl-methanone], for which the inhibition at 10 µM amounted to 97%.

Regarding `Cc1ncc(Nc2ncc(C(=O)N3CCCCCC3)cc2Cl)cn1` [Compound 2.18, Azepan-1-yl-[5-chloro-6-(2-methyl-pyrimidin-5-ylamino)-pyridin-3-yl]-methanone], the inhibition at 10 µM was 100%.

`CC[C@@H]1CCCCN1C(=O)c1cnc(Nc2ccc(C(F)(F)F)nc2)c(Cl)c1` [Compound 2.23, [5-Chloro-6-(6-trifluoromethyl-pyridin-3-ylamino)-pyridin-3-yl]-((R)-2-ethyl-piperidin-1-yl)-methanone]: the inhibition at 10 µM amounted to 100%.

Regarding `CC[C@@H]1CCCCN1C(=O)c1cnc(Nc2ccc(OC)nc2)c(Cl)c1` [Compound 2.24, [5-Chloro-6-(6-methoxy-pyridin-3-ylamino)-pyridin-3-yl]-((R)-2-ethyl-piperidin-1-yl)-methanone], the inhibition at 10 µM came to 97%.

For `Cc1ccc(Oc2ncc(C(=O)N3CCCCC3)cc2Cl)cn1` [Compound 3.2, [5-Chloro-6-(6-methyl-pyridin-3-yloxy)-pyridin-3-yl]-piperidin-1-yl-methanone], the inhibition at 10 µM worked out at 97%.

`Cc1ccc(Oc2ncc(C(=O)N3CCCCCC3)cc2Cl)cn1` [Compound 3.3, Azepan-1-yl-[5-chloro-6-(6-methyl-pyridin-3-yloxy)-pyridin-3-yl]-methanone]: the inhibition at 10 µM came out at 90%.

Turning to `Cc1ccc(Nc2ccc(C(=O)N3CCCCC3)cn2)cn1` [Compound 4.1, [6-(6-Methyl-pyridin-3-ylamino)-pyridin-3-yl]-piperidin-1-yl-methanone], the inhibition at 10 µM was 99%.

As for `O=C(c1ccc(Nc2ccc(Cl)cc2)nc1)N1CCCCCC1` [Compound 4.2, Azepan-1-yl-[6-(4-chloro-phenylamino)-pyridin-3-yl]-methanone], the inhibition at 10 µM came to 97%.

Regarding `O=C(c1ccc(Nc2ccc(Cl)cc2)nc1)N1CCCC(F)(F)C1` [Compound 4.3, [6-(4-Chloro-phenylamino)-pyridin-3-yl]-(3,3-difluoro-piperidin-1-yl)-methanone], the inhibition at 10 µM is 92%.

As for `CC1CCN(C(=O)c2ccc(Nc3ccc(Cl)cc3)nc2)CC1` [Compound 4.4, [6-(4-Chloro-phenylamino)-pyridin-3-yl]-(4-methyl-piperidin-1-yl)-methanone], the inhibition at 10 µM was determined as 98%.

As for `CC1CC(C)CN(C(=O)c2ccc(Nc3ccc(Cl)cc3)nc2)C1` (centres unmarked) [Compound 4.5, [6-(4-Chloro-phenylamino)-pyridin-3-yl]-(3,5-dimethyl-piperidin-1-yl)-methanone], the inhibition at 10 µM worked out at 88%.

As for `O=C(c1ccc(Nc2ccc(Cl)cc2)nc1)N1CCCC2CCCCC21` (centres unmarked) [Compound 4.8, [6-(4-Chloro-phenylamino)-pyridin-3-yl]-(octahydro-quinolin-1-yl)-meth anone], the inhibition at 10 µM stood at 94%.

For the compound `O=C(c1ccc(Nc2ccc(Cl)cc2)nc1)N1CC2CCC(CC2)C1` [Compound 4.9, (3-Aza-bicyclo[3.2.2]non-3-yl)-[6-(4-chloro-phenylamino)-pyridin-3-yl]-methanone], the inhibition at 10 µM is 37%.

Turning to `O=C(c1ccc(Nc2ccc(Cl)cc2)nc1)N1C2CCC1CC(O)C2` (centres unmarked) [Compound 4.11, [6-(4-Chloro-phenylamino)-pyridin-3-yl]-(3-hydroxy-8-aza-bicyclo[3.2.1]oct-8-yl)-methanone], the inhibition at 10 µM is 51%.

Consider `Cc1ccc(Nc2ccc(C(=O)N3CCC[C@H](C)C3)cn2)cn1` [Compound 4.13a, (S-3-Methyl-piperidin-1-yl)-[6-(6-methyl-pyridin-3-ylamino)-pyridin-3-yl]-methanone], for which the “mGluR5 Activity inh. at 10 μM [%]” value is on record as 97%.

In the case of `Cc1ccc(Nc2ccc(C(=O)N3CCC[C@@H](C)C3)cn2)cn1` [Compound 4.13b, (R-3-Methyl-piperidin-1-yl)-[6-(6-methyl-pyridin-3-ylamino)-pyridin-3-yl]-methanone], the inhibition at 10 µM is 96%.

Take `Cc1ccc(Nc2ccc(C(=O)N3CCCCCC3)cn2)cn1` [Compound 4.15, Azepan-1-yl-[6-(6-methyl-pyridin-3-ylamino)-pyridin-3-yl]-methanone]: the inhibition at 10 µM turned out to be 98%.

Turning to `Cc1ccc(Nc2ccc(C(=O)N3CCCCCCC3)cn2)cn1` [Compound 4.16, Azocan-1-yl-[6-(6-methyl-pyridin-3-ylamino)-pyridin-3-yl]-methanone], the inhibition at 10 µM turned out to be 81%.

For `CCC1CCCCN1C(=O)c1cnc(Nc2ccc(C)nc2)c(Cl)c1` (centres unmarked) [Compound 4.17, [5-Chloro-6-(6-methyl-pyridin-3-ylamino)-pyridin-3-yl]-(2-ethyl-piperidin-1-yl)-methanone], the inhibition at 10 µM stood at 98%.

For `CC[C@@H]1CCCCN1C(=O)c1cnc(Nc2ccc(C)nc2)c(Cl)c1` [Compound 4.18, [5-Chloro-6-(6-methyl-pyridin-3-ylamino)-pyridin-3-yl]-((R)-2-ethyl-piperidin-1-yl)-methanone], the inhibition at 10 µM stood at 97%.

With `CC[C@H]1CCCCN1C(=O)c1cnc(Nc2ccc(C)nc2)c(Cl)c1` [Compound 4.19, [5-Chloro-6-(6-methyl-pyridin-3-ylamino)-pyridin-3-yl]-((S)-2-ethyl-piperidin-1-yl)-methanone], the inhibition at 10 µM is 97%.

With `Cc1ccc(Nc2ncc(C(=O)N3CCCC(C)C3C)cc2Cl)cn1` (centres unmarked) [Compound 4.20, [5-Chloro-6-(6-methyl-pyridin-3-ylamino)-pyridin-3-yl]-(2,3-dimethyl-piperidin-1-yl)-methanone], the inhibition at 10 µM was determined as 100%.

With `Cc1ccc(Nc2ncc(C(=O)N3CCC[C@H](C)[C@@H]3C)cc2Cl)cn1` [Compound 4.21, [5-Chloro-6-(6-methyl-pyridin-3-ylamino)-pyridin-3-yl]-((2S,3S)-2,3-dimethyl-piperidin-1-yl)-methanone], the inhibition at 10 µM turned out to be 99%.

In the case of `Cc1ccc(Nc2ncc(C(=O)N3CCC[C@@H](C)[C@H]3C)cc2Cl)cn1` [Compound 4.22, [5-Chloro-6-(6-methyl-pyridin-3-ylamino)-pyridin-3-yl]-((2R,3R)-2,3-dimethyl-piperidin-1-yl)-methanone], the inhibition at 10 µM came out at 98%.

`Cc1ccc(Nc2ncc(C(=O)N3CCCC[C@@H]3C)cc2Cl)cn1` [Compound 4.23, [5-Chloro-6-(6-methyl-pyridin-3-ylamino)-pyridin-3-yl]-((S)-2-methyl-piperidin-1-yl)-methanone]: the inhibition at 10 µM was 95%.

Turning to `Cc1ccc(Nc2ncc(C(=O)N3CCCC[C@H]3C)cc2Cl)cn1` [Compound 4.24, [5-Chloro-6-(6-methyl-pyridin-3-ylamino)-pyridin-3-yl]-((R)-2-methyl-piperidin-1-yl)-methanone], the inhibition at 10 µM was found to be 92%.

Take `Cc1ccc(Nc2ncc(C(=O)N3CCCC4CCCC43)cc2Cl)cn1` (centres unmarked) [Compound 4.25, [5-Chloro-6-(6-methyl-pyridin-3-ylamino)-pyridin-3-yl]-(octahydro-[1]pyridin-1-yl)-methanone]: the “mGluR5 Activity inh. at 10 μM [%]” value was 98%.

Take `Cc1ccc(Nc2ncc(C(=O)N3CCC[C@@H]4CCC[C@@H]43)cc2Cl)cn1` [Compound 4.26, [5-Chloro-6-(6-methyl-pyridin-3-ylamino)-pyridin-3-yl]-(4aS,7aS)-octahydro-[1]pyridin-1-yl-methanone]: the “mGluR5 Activity inh. at 10 μM [%]” value turned out to be 93%.

`Cc1ccc(Nc2ncc(C(=O)N3CCCCC3C(C)C)cc2Cl)cn1` (centres unmarked) [Compound 4.28, [5-Chloro-6-(6-methyl-pyridin-3-ylamino)-pyridin-3-yl]-(2-isopropyl-piperidin-1-yl)-methanone]: the inhibition at 10 µM turned out to be 93%.

For `Cc1ccc(Nc2ncc(C(=O)N3CCCC[C@@H]3C(C)C)cc2Cl)cn1` [Compound 4.29, [5-Chloro-6-(6-methyl-pyridin-3-ylamino)-pyridin-3-yl]-((R)-2-isopropyl-piperidin-1-yl)-methanone], the inhibition at 10 µM was 86%.

Take `Cc1ccc(Nc2ncc(C(=O)N3CCCC[C@H]3C(C)C)cc2Cl)cn1` [Compound 4.30, [5-Chloro-6-(6-methyl-pyridin-3-ylamino)-pyridin-3-yl]-((S)-2-isopropyl-piperidin-1-yl)-methanone]: the inhibition at 10 µM was 96%.

As to `CCCC1CCCCN1C(=O)c1cnc(Nc2ccc(C)nc2)c(Cl)c1` (centres unmarked) [Compound 4.34, [5-Chloro-6-(6-methyl-pyridin-3-ylamino)-pyridin-3-yl]-(2-propyl-piperidin-1-yl)-methanone], the inhibition at 10 µM is 98%.

`CCC[C@H]1CCCCN1C(=O)c1cnc(Nc2ccc(C)nc2)c(Cl)c1` [Compound 4.35, [5-Chloro-6-(6-methyl-pyridin-3-ylamino)-pyridin-3-yl]-((S)-2-propyl-piperidin-1-yl)-methanone]: the inhibition at 10 µM amounted to 85%.

Consider `CCC1CCCN(C(=O)c2cnc(Nc3ccc(C)nc3)c(Cl)c2)C1CC` (centres unmarked) [Compound 4.37, [5-Chloro-6-(6-methyl-pyridin-3-ylamino)-pyridin-3-yl]-(2,3-diethyl-piperidin-1-yl)-methanone], for which the inhibition at 10 µM was 94%.
